Assay results as given in ChEMBL document CHEMBL3044970, “Isoniazid: the magic molecule” (2012).
Converted amounts (≈) assume the structure as drawn.

Tests used:
Type in all cases: functional
[1] = tested on: Mycobacterium tuberculosis; test: Ratio of INH MIC to compound MIC for INH-resistant Mycobacterium tuberculosis
[2] = tested on: Mycobacterium tuberculosis; test: Antimicrobial activity against INH-resistant Mycobacterium tuberculosis
[3] = tested on: Mycobacterium tuberculosis; test: Antimicrobial activity against INH-resistant Mycobacterium tuberculosis by agar dilution method relative to isonicotinoyl hydrazide
[4] = tested on: Mycobacterium tuberculosis; test: Antimicrobial activity against drug-resistant Mycobacterium tuberculosis infected in macrophages
[5] = Selectivity ratio of MIC for Mycobacterium tuberculosis H37Rv to MIC for INH-resistant Mycobacterium tuberculosis clinical isolate

COc1cc(C2=NN(C(=O)c3ccncc3)C(c3ccc(O)cc3)C2)ccc1OCC(=O)O (stereo unspecified)
Ratio [1]: 78
MIC [2]: 0.12 µM (≈ 0.0537 µg/mL)

O=C(NNC(=S)Nc1ccccc1C(F)(F)F)c1ccncc1
MIC [2]: 0.58 µM (≈ 0.197 µg/mL)
Ratio [3]: 157

C/C(=N\NC(=O)c1ccncc1)c1cccc(F)c1
MIC [4]: < 0.05 µg/mL

O=C(c1ccncc1)N1N=C(c2ccco2)CC1(O)C(F)(F)F (stereo unspecified)
Selectivity ratio [5]: 2
